Source: patent publication US9506926B2, “Molecular predictors of therapeutic response to specific anti-cancer agents” (The Regents of the University of California, priority 2011, dated 2016)
Entries after “also recorded” stand apart in the source; their conditions may differ.

System: breast cancer cell lines
Assay: Cell growth inhibition assay (Cell Titer Glo, 72 h drug exposure, GI50) across a breast cancer cell line panel, with subtype, copy number and growth rate association analysis
Assay type: cell-based, human
Settings: for Subtype specificity: Table 1, most sensitive cell line subtype, q<0.10 deemed significant; for Subtype-preferential activity in breast cancer cell lines (in words): running text and figure legends, response as −log10(GI50); for Response of the cell line panel as a whole: compounds excluded from further analysis; for Association of 17q12 (ERBB2) amplification with compound response / Association of 20q13 (STK15/AURKA) amplification with compound response: high amplification vs. low or no amplification, t-test; for Molecular Subtype in which the compound shows Preferential Activity: Table 7 summary; for Association of response with growth rate (doubling time): 2-way ANCOVA of cell line class and growth rate

| Compound | Subtype specificity | Subtype-preferential activity in breast cancer cell lines (in words) | further results |
| --- | --- | --- | --- |
| O=c1[nH]c2ccccc2n1C1CCN(Cc2ccc(-c3nc4cc5[nH]cnc5cc4nc3-c3ccccc3)cc2)CC1 [Sigma AKT1-2 inhibitor] | Luminal | Luminal and ERBB2AMP cell lines preferentially respond | – |
| O=C(Nc1cc(Cl)cc2c1[nH]c1cnccc12)c1cccnc1 [PS1145] | – | – | Response of the cell line panel as a whole: almost none of the cell lines in the panel responded strongly |
| CS(=O)(=O)CCNCc1ccc(-c2ccc3ncnc(Nc4ccc(OCc5cccc(F)c5)c(Cl)c4)c3c2)o1 [Lapatinib] | Luminal/ERBB2AMP | – | – |
| CO[C@H]1C[C@@H]2CC[C@@H](C)[C@@](O)(O2)C(=O)C(=O)N2CCCC[C@H]2C(=O)O[C@H]([C@H](C)C[C@@H]2CC[C@@H](OC(=O)C(C)(CO)CO)[C@H](OC)C2)CC(=O)[C@H](C)/C=C(\C)[C@@H](O)[C@@H](OC)C(=O)[C@H](C)C[C@H](C)/C=C/C=C/C=C/1C [Temsirolimus] | Luminal | – | – |
| COc1cc([C@@H]2c3cc4c(cc3[C@@H](O[C@@H]3O[C@@H]5CO[C@@H](C)O[C@H]5[C@H](O)[C@H]3O)[C@H]3COC(=O)[C@H]23)OCO4)cc(OC)c1O [Etoposide] | Claudin-low | preferential activity in basal or claudin-low cell lines | – |
| COc1cc2ncnc(Nc3cccc(Cl)c3)c2cc1OC [AG1478] | ERBB2AMP | – | – |
| CCNCCCNC/C=C\CNCCCNCC [CGC-11047] | Basal | – | – |
| C=CCNC1=C2C[C@@H](C)C[C@H](OC)[C@H](O)[C@@H](C)/C=C(\C)[C@H](OC(N)=O)[C@@H](OC)/C=C\C=C(/C)C(=O)NC(=CC1=O)C2=O [17-AAG] | ERBB2AMP | – | Association of 17q12 (ERBB2) amplification with compound response: associated with sensitivity |
| CC(=O)O[C@@]12CO[C@@H]1C[C@H](O)[C@@]1(C)C(=O)[C@H](O)C3=C(C)[C@@H](OC(=O)[C@H](O)[C@@H](NC(=O)OC(C)(C)C)c4ccccc4)C[C@@](O)([C@@H](OC(=O)c4ccccc4)[C@H]21)C3(C)C [Docetaxel] | Basal/Claudin-low | preferential activity in basal or claudin-low cell lines | – |
| C#Cc1cccc(Nc2ncnc3cc(OCCOC)c(OCCOC)cc23)c1 [Erlotinib] | Basal | preferentially active in basal class cell lines | Molecular Subtype in which the compound shows Preferential Activity: Basal (ER−/PR−/HER2−Claudin+) |
| CN(C)C/C=C/C(=O)Nc1cc2c(Nc3ccc(F)c(Cl)c3)ncnc2cc1O[C@H]1CCOC1 [BIBW 2992] | ERBB2AMP | – | Association of 17q12 (ERBB2) amplification with compound response: associated with sensitivity |
| COc1ncc(-c2ccc3nccc(-c4ccnnc4)c3c2)cc1NS(=O)(=O)c1ccc(F)cc1F [GSK2126458] | Luminal/ERBB2AMP | – | – |
| CCn1cc(-c2ccnc3[nH]c(-c4cccc(CN(C)C)c4)cc23)c(-c2ccc(NC(=O)N(C)C)cc2)n1 [GSK1070916] | Claudin-low | more active against basal and/or claudin-low cell lines | Molecular Subtype in which the compound shows Preferential Activity: Claudin-low; also recorded: Tumors with low or no 20q13 amplification; Association of 20q13 (STK15/AURKA) amplification with compound response: is associated with; also recorded: associated with resistance; Association of 20q13 (STK15/AURKA) amplification with compound response (listed as GSK.AUR1): less effective in tumors that have genomic DNA copy number amplifications at 20q13; Subtype-preferential activity in breast cancer cell lines (in words) (listed as GSK.AUR1): preferentially active against Claudin-low cell lines |
| NS(=O)(=O)c1ccc(Nc2nc(OCC3CCCCC3)c3[nH]cnc3n2)cc1 [NU6102] | – | – | Association of 17q12 (ERBB2) amplification with compound response: associated with resistance |
| CC(/C=C/C(=O)NO)=C\[C@@H](C)C(=O)c1ccc(N(C)C)cc1 [Trichostatin A] | Luminal | preferentially active in luminal class cell lines | Molecular Subtype in which the compound shows Preferential Activity: Luminal (ER+/PR+) |
| O=c1cc(-c2ccccc2)oc2cc(O)c(O)c(O)c12 [baicalein] | – | – | Response of the cell line panel as a whole: almost none of the cell lines in the panel responded strongly |
| COc1cc2ncnc(Nc3ccc(F)c(Cl)c3)c2cc1OCCCN1CCOCC1 [Gefitinib] | ERBB2AMP | – | Association of 17q12 (ERBB2) amplification with compound response: associated with sensitivity |
| CCN(CC)CCCCNc1ncc2cc(-c3cc(OC)cc(OC)c3)c(NC(=O)NC(C)(C)C)nc2n1 [PD173074] | Claudin-low | – | – |
| Cc1[nH]c2ccccc2c1CCNCc1ccc(/C=C/C(=O)NO)cc1 [LBH589] | Luminal | – | – |
| O=C1c2ccccc2-[n+]2ccc3c([nH]c4ccccc43)c21 [Fascaplysin] | Luminal | – | – |
| O=C(CCCCCCC(=O)Nc1ccccc1)NO [Vorinostat] | Luminal | preferentially active in luminal class cell lines | Molecular Subtype in which the compound shows Preferential Activity: Luminal (ER+/PR+) |
| N.N.[Cl][Pt][Cl] [Cisplatin] | Basal/Claudin-low | basal cell line sensitivity; also recorded: preferential activity in basal or claudin-low cell lines | – |
| Cc1cc(Nc2cc(N3CCN(C)CC3)nc(Sc3ccc(NC(=O)C4CC4)cc3)n2)n[nH]1 [VX-680] | not ERBB2AMP | – | – |
| O=c1[nH]cc(F)c(=O)[nH]1 [5-FU, Fluorouracil] | – | – | Association of response with growth rate (doubling time): strong effects of both subtype and growth rate on response; Association of response with growth rate (doubling time) (listed as 5-florouracil): strong significance in the ANCOVA model for both class and doubling time; also recorded: decreases as doubling time increases; Association of response with growth rate (doubling time) (listed as Fluorouracil): active against cell lines with rapid growth rates; also recorded: active against cell lines that grow more quickly; Shift of mean sensitivity between luminal and basal subtypes (ANCOVA model, FIG. 4B): shifts by approximately one log; Molecular Subtype in which the compound shows Preferential Activity: KI67+ tumors; Subtype-preferential activity in breast cancer cell lines (in words) (listed as 5-florouracil): not significant in the subtype test alone; Subtype-preferential activity in breast cancer cell lines (in words) (listed as Fluoruracil): more effective against basal cell lines (both triple negative and claudin-low) than against luminal cell lines |
